Results on eleven compounds are retold here after PubChem BioAssay (NCI).

SMILES strings stand for the structures.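 Interpolation was linear, between the two tested concentrations surrounding the appropriate level; five concentrations were tested over 48 hours in 96-well plates. GI50 = concentration required for 50% inhibition of growth. The concentration for full growth arrest is given as TGI.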

Among the test systems are HCC-2998 colon; HOP-92 NSCLC; KM12 colon; OVCAR-4 ovarian; SK-MEL-5 melanoma; MALME-3M melanoma; NCI-H460 lung; UACC-62 melanoma; UO-31 renal.
Experiment in all cases: growth of human tumour cells (NCI), 48 h

In the case of `Ic1ccc(Nc2nc3nonc3nc2Nc2ccc(I)cc2)cc1`, the GI50 in the experiment with HCC-2998 colon was 0.326 µM; with HOP-92 NSCLC it was 0.0408 µM; in the experiment on KM12 colon, 0.293 µM; with OVCAR-4 ovarian it was 0.246 µM; in the experiment with SK-MEL-5 melanoma, 0.137 µM; in the experiment with MALME-3M melanoma, 0.167 µM. For the same compound, in the experiment with NCI-H460 lung, the GI50 is 0.156 µM. Also, the TGI is above 100 µM in the experiment on HCC-2998 colon; 0.458 µM with HOP-92 NSCLC; above 100 µM in the experiment on KM12 colon; above 100 µM with OVCAR-4 ovarian; 0.352 µM in the experiment with SK-MEL-5 melanoma; 0.604 µM in the experiment on MALME-3M melanoma. The TGI in the experiment on NCI-H460 lung is above 32 µM.
In the case of `Clc1ccc2c(NCCCNc3nccc(Nc4ccc(Br)cc4)n3)ccnc2c1`, the GI50 was 1.5 µM in the experiment with HCC-2998 colon; 1.32 µM with HOP-92 NSCLC; 1.82 µM in the experiment with KM12 colon; 1.88 µM in the experiment with UACC-62 melanoma; 1.39 µM with OVCAR-4 ovarian; 1.48 µM in the experiment on SK-MEL-5 melanoma. Besides, the GI50 with UO-31 renal is 1.52 µM; in the experiment with NCI-H460 lung, 1.76 µM. Further, the TGI with HCC-2998 colon is 2.93 µM; in the experiment with HOP-92 NSCLC it was 3.23 µM; with KM12 colon it was 3.36 µM; with UACC-62 melanoma, 3.56 µM; with OVCAR-4 ovarian, 2.75 µM; in the experiment with SK-MEL-5 melanoma, 2.84 µM. Also, the values for the TGI with UO-31 renal and in the experiment on NCI-H460 lung were 3.01 µM and 3.44 µM, respectively.
Take `C=CC1CC12C(=O)C1OC2(C)C2C(=O)c3cc4ccccc4cc3C(=O)C12` (stereo unspecified): the GI50 was 24.6 µM with HCC-2998 colon; 20.9 µM in the experiment with HOP-92 NSCLC; 21.8 µM with KM12 colon; 16.8 µM in the experiment on MALME-3M melanoma; 53.3 µM in the experiment with UO-31 renal; 26.9 µM with NCI-H460 lung. Besides, the TGI in the experiment with HCC-2998 colon was above 100 µM; in the experiment with HOP-92 NSCLC, 95.3 µM; in the experiment on KM12 colon, 58.7 µM; with MALME-3M melanoma it was 57.4 µM; in the experiment with UO-31 renal it was above 100 µM; in the experiment with NCI-H460 lung it was above 100 µM.
Take `OCCN1CN(CCO)CN(c2nc(N3CN(CCO)CN(CCO)C3)nc(N3CN(CCO)CN(CCO)C3)n2)C1`: the GI50 was 1.85 ng/mL in the experiment with HOP-92 NSCLC; 0.991 ng/mL in the experiment on UACC-62 melanoma; 1.69 ng/mL with OVCAR-4 ovarian; 0.891 ng/mL with SK-MEL-5 melanoma; 1.5 ng/mL with UO-31 renal; 0.92 ng/mL with NCI-H460 lung. The TGI amounted to 4.52 ng/mL with HOP-92 NSCLC; 3.31 ng/mL in the experiment on UACC-62 melanoma; 4.06 ng/mL in the experiment with OVCAR-4 ovarian; 1.74 ng/mL with SK-MEL-5 melanoma; 4.4 ng/mL in the experiment with UO-31 renal; 3.85 ng/mL with NCI-H460 lung.
For `O=Cc1cc2c(cc1-c1c(C=O)ccc3c1OCO3)OCO2`, the TGI with HCC-2998 colon, with HOP-92 NSCLC, in the experiment with KM12 colon, in the experiment on UACC-62 melanoma, in the experiment with OVCAR-4 ovarian and in the experiment on SK-MEL-5 melanoma was above 10 µM each time. Further, the TGI in the experiment with MALME-3M melanoma is above 10 µM.
With `O=C(CCCn1ccnc1[N+](=O)[O-])NCCn1cncc1[N+](=O)[O-]`, the TGI in the experiment with HOP-92 NSCLC, in the experiment with KM12 colon, in the experiment on UACC-62 melanoma, with OVCAR-4 ovarian, with SK-MEL-5 melanoma and in the experiment on MALME-3M melanoma was above 100 µM throughout. For the same compound, the TGI in the experiment with UO-31 renal and with NCI-H460 lung was above 100 µM throughout.
As to `CC(=O)OC1Oc2ccccc2-c2oc(=O)c(-c3cc(=O)oc4cc(O)ccc34)cc21` (stereo unspecified), the GI50 is 14.1 µM with HOP-92 NSCLC; 19.8 µM in the experiment with KM12 colon; 18.8 µM in the experiment on UACC-62 melanoma; 25 µM with OVCAR-4 ovarian; 13.2 µM in the experiment on SK-MEL-5 melanoma; 20.9 µM in the experiment on MALME-3M melanoma. The GI50 was 22.2 µM in the experiment on UO-31 renal and 21.5 µM with NCI-H460 lung. Moreover, the TGI with HOP-92 NSCLC is 40.9 µM; in the experiment on KM12 colon, 46.4 µM; in the experiment on UACC-62 melanoma it was 39 µM; in the experiment with OVCAR-4 ovarian it was above 100 µM; in the experiment with SK-MEL-5 melanoma, 26.5 µM; with MALME-3M melanoma it was 59.2 µM. Further, the TGI amounted to 58.9 µM in the experiment with UO-31 renal and 73.7 µM in the experiment with NCI-H460 lung.
Turning to `C/C1=C\CC[C@@]2(C)O[C@@H]2[C@H]2OC(=O)[C@@H](CN(C)C)[C@@H]2CC1`, the GI50 in the experiment on HCC-2998 colon is 18 µM; with HOP-92 NSCLC, 9.87 µM; with KM12 colon, 11.8 µM; in the experiment with UACC-62 melanoma, 17.7 µM; with OVCAR-4 ovarian, 16.6 µM; in the experiment with SK-MEL-5 melanoma it was 8.14 µM. Moreover, the GI50 in the experiment with UO-31 renal is 2.31 µM; in the experiment on NCI-H460 lung, 32.8 µM. Besides, the TGI in the experiment on HCC-2998 colon worked out at 35.7 µM; in the experiment on HOP-92 NSCLC it was 29.7 µM; in the experiment on KM12 colon, 29.1 µM; in the experiment on UACC-62 melanoma, 34.9 µM; in the experiment with OVCAR-4 ovarian, 40 µM; in the experiment on SK-MEL-5 melanoma it was 29.7 µM. Also, the TGI in the experiment on UO-31 renal was 5.95 µM; in the experiment with NCI-H460 lung, above 100 µM.
Take `COC(=O)c1cc2c(cc1O)[C@@H](NC(C)=O)CCc1cc(OC)c(OC)c(OC)c1-2`: the GI50 in the experiment on HCC-2998 colon was 0.0355 µM; in the experiment with KM12 colon, below 0.01 µM; in the experiment on UACC-62 melanoma, 0.0159 µM; in the experiment on OVCAR-4 ovarian, 1.06 µM; in the experiment on MALME-3M melanoma, 0.0299 µM; in the experiment with UO-31 renal, 0.0626 µM. The GI50 in the experiment with NCI-H460 lung is 0.0296 µM. For the same compound, the TGI with HOP-92 NSCLC was 8.75 µM; in the experiment with UACC-62 melanoma it was above 100 µM; with OVCAR-4 ovarian, above 100 µM; in the experiment with UO-31 renal it was above 100 µM; in the experiment on NCI-H460 lung it was above 100 µM.
Consider `CCCCc1c(OC)cc(O)c2c1C(=O)c1[nH]c(C(=O)O)c(O)c(=O)c1C2=O`, for which the TGI in the experiment on HCC-2998 colon is above 100 µM; in the experiment on HOP-92 NSCLC, above 100 µM; in the experiment with KM12 colon it was above 100 µM; with UACC-62 melanoma, 6.96 µM; in the experiment on OVCAR-4 ovarian, above 100 µM; in the experiment on UO-31 renal, 13.8 µM. This compound also displayed a TGI in the experiment on NCI-H460 lung above 100 µM.
Consider `CCOc1nc(-c2ccccc2)cc2c(O)c(-c3nnco3)[nH]c(=O)c12`, for which the GI50 in the experiment on HCC-2998 colon is 5.57 µM; in the experiment on HOP-92 NSCLC, 1.24 µM; in the experiment with KM12 colon, 4.14 µM; in the experiment with UACC-62 melanoma it was 6.47 µM; in the experiment on SK-MEL-5 melanoma, 2.16 µM; with MALME-3M melanoma, 7.58 µM. Further, the GI50 in the experiment on UO-31 renal is 2.11 µM; in the experiment with NCI-H460 lung, 4.01 µM. Moreover, the TGI in the experiment on HCC-2998 colon was above 100 µM; with HOP-92 NSCLC it was 6.97 µM; with KM12 colon it was above 100 µM; in the experiment with UACC-62 melanoma, above 100 µM; in the experiment with SK-MEL-5 melanoma, 8.18 µM; in the experiment with MALME-3M melanoma, above 100 µM. Further, the TGI with UO-31 renal and with NCI-H460 lung was above 100 µM in each case.
